SMILES strings stand for the structures. Several values for one entry are separate records, joined by “and”; a condition that tells them apart may be missing. Identical values can stand only once.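 Step 1: Grow cells in 96-well plates. Step 2: Expose to compound for 48 hours at 5 concentrations. Step 3: Interpolate endpoints linearly; if unreached, use highest concentration. At the GI50, growth is halved. TGI marks complete inhibition of growth.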

In PubChem BioAssay (NCI) one finds TGI and GI50 data, which are given here for 1 compound.

Test systems include T-47D breast; SNB-78 CNS; KM20L2 colon; DLD-1 colon; MDA-N; RXF-631 renal; SN12K1 renal; HOP-18 NSCLC; DMS 273 small cell lung; P388 leukemia.
What all share (assay): NCI tumour cell line growth inhibition, 48 h

`COc1nc(C(Cl)(Cl)Cl)c(Cl)c(OC)c1Cl`: the TGI in the assay on T-47D breast is 77.6 µM; in the assay with SNB-78 CNS it was 72.3 µM; with KM20L2 colon it was 55.7 µM and 85.2 µM; with DLD-1 colon it was 79.8 µM; in the assay with MDA-N, 57.5 µM; with RXF-631 renal, 49.4 µM. Also, the TGI in the assay with SN12K1 renal came to 62.4 µM; in the assay on HOP-18 NSCLC, 70.1 µM; in the assay on DMS 273 small cell lung it was 75.3 µM; with P388 leukemia it was 43 µM. Further, the values for the GI50 in the assay on KM20L2 colon and in the assay on DLD-1 colon were 21 µM and 31.7 µM, respectively.
